Experimental data reported in patent US11384055B2 (BIOMARIN PHARMACEUTICAL INC., priority 2017, dated 2022).

What follows are compounds tested against T1, Human GO (Homo sapiens, UniProt Q9UJM8) (assay: GO enzymatic assay (coupled fluorescence/HRP assay, glycolate substrate)). Details: Table 2; read-out: Range (range of IC50 values calculated from the enzymatic assays).
T1 construct: purchased Novus Biologicals NBP1-72412
T1 sequence (Q9UJM8 1-370): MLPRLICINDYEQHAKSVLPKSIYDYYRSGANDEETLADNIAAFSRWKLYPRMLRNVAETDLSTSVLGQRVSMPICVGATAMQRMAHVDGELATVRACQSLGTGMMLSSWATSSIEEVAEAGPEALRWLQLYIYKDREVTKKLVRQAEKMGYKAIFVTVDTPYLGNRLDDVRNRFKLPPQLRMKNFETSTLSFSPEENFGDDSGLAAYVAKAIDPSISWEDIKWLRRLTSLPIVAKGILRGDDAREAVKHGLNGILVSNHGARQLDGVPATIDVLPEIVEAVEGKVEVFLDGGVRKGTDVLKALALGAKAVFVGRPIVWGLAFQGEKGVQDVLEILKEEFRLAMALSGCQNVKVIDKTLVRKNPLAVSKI
Type: biochemical
Procedure, shortened: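 Coupled HRP/fluorescence read-out of glycolate oxidation by human GO in 50 mM potassium phosphate buffer (pH 7). Inhibitors added across a concentration range.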

IC50 [nM]	Structure (SMILES)
100 to 1000	O=C(O)c1[nH]nnc1-c1cc2ccc(OC(F)(F)F)cc2cn1 [Compound 214, 4-(7-(trifluoromethoxy)isoquinolin-3-yl)-1H-1,2,3-triazole-5-carboxylic acid]
100 to 1000	O=C(O)c1[nH]nnc1-c1cc2ccc(C(F)(F)F)cc2cn1 [Compound 215, 4-(7-(trifluoromethyl)isoquinolin-3-yl)-1H-1,2,3-triazole-5-carboxylic acid]
< 100	O=C(O)c1[nH]nnc1-c1cnc2cc(Cl)ccc2c1 [Compound 216, 4-(7-chloroquinolin-3-yl)-1H-1,2,3-triazole-5-carboxylic acid 2,2,2-trifluoroacetate]
< 100	O=C(O)c1[nH]nnc1-c1cc(Cl)cc(OCC2CC2)c1 [Compound 217, 4-(3-chloro-5-(cyclopropylmethoxy)phenyl)-1H-1,2,3-triazole-5-carboxylic acid 2,2,2-trifluoroacetate]
100 to 1000	O=C(O)c1[nH]nnc1-c1ccc(Cl)c(OCC2CC2)c1 [Compound 218, 4-(4-chloro-3-(cyclopropylmethoxy)phenyl)-1H-1,2,3-triazole-5-carboxylic acid]
1000 to 10000	O=C(O)c1[nH]nnc1-c1cc(OCC2CC2)ccc1Cl [Compound 219, 4-(2-chloro-5-(cyclopropylmethoxy)phenyl)-1H-1,2,3-triazole-5-carboxylic acid]
< 100	O=C(O)c1[nH]nnc1Oc1ccc(-c2cccc(N3CCCCC3)c2)cc1 [Compound 220, 4-((3′-(piperidin-1-yl)-[1,1′-biphenyl]-4-yl)oxy)-1H-1,2,3-triazole-5-carboxylic acid 2,2,2-trifluoroacetate]
< 100	O=C(O)c1[nH]nnc1Oc1ccc(-c2ccc(N3CCCCC3)cc2)cc1 [Compound 221, 4-((4′-(piperidin-1-yl)-[1,1′-biphenyl]-4-yl)oxy)-1H-1,2,3-triazole-5-carboxylic acid 2,2,2-trifluoroacetate]
< 100	CN1CCCc2cc(-c3ccc(Oc4nn[nH]c4C(=O)O)cc3)ccc21 [Compound 222, 4-(4-(1-methyl-1,2,3,4-tetrahydroquinolin-6-yl)phenoxy)-1H-1,2,3-triazole-5-carboxylic acid]
< 100	O=C(O)c1[nH]nnc1Oc1ccc(-c2cccc3c2CCCC3)cc1 [Compound 223, 4-(4-(5,6,7,8-tetrahydronaphthalen-1-yl)phenoxy)-1H-1,2,3-triazole-5-carboxylic acid 2,2,2-trifluoroacetate]
< 100	O=C(O)c1[nH]nnc1Oc1ccc(-c2cccc(CN3CCCCC3=O)c2)cc1 [Compound 224, 4-((3′-((2-oxopiperidin-1-yl)methyl)-[1,1′-biphenyl]-4-yl)oxy)-1H-1,2,3-triazole-5-carboxylic acid]
< 100	N#Cc1ccc(-c2ccc(Oc3nn[nH]c3C(=O)O)cc2)cc1 [Compound 225, 4-((4′-cyano-[1,1′-biphenyl]-4-yl)oxy)-1H-1,2,3-triazole-5-carboxylic acid]
1000 to 10000	CC(C)N1CCc2ccc(Oc3nn[nH]c3C(=O)O)cc2C1 [Compound 226, 4-((2-isopropyl-1,2,3,4-tetrahydroisoquinolin-7-yl)oxy)-1H-1,2,3-triazole-5-carboxylic acid 2,2,2-trifluoroacetate]
< 100	O=C(O)c1[nH]nnc1OCc1ccc2cc(Cl)ccc2c1 [Compound 227, 4-((6-chloronaphthalen-2-yl)methoxy)-1H-1,2,3-triazole-5-carboxylic acid 2,2,2-trifluoroacetate]
< 100	O=C(O)c1[nH]nnc1Oc1ccc(-c2cccc(C3CCCCC3)c2)cc1 [Compound 228, 4-((3′-cyclohexyl-[1,1′-biphenyl]-4-yl)oxy)-1H-1,2,3-triazole-5-carboxylic acid]
100 to 1000	O=C(O)c1c(Oc2ccc(Cl)c(Cl)c2)nnn1COC(=O)C1CCCCC1 [Compound 229, 1-(((cyclohexanecarbonyl)oxy)methyl)-4-(3,4-dichlorophenoxy)1H-1,2,3-triazole-5-carboxylic acid]
< 100	COCCOc1cccc(-c2ccc(Oc3nn[nH]c3C(=O)O)cc2)c1 [Compound 230, 4-((3′-(2-methoxyethoxy)-[1,1′-biphenyl]-4-yl)oxy)-1H-1,2,3-triazole-5-carboxylic acid]
< 100	O=C(O)c1[nH]nnc1Oc1ccc2c(c1)OCCO2 [Compound 231, 4-((2,3-dihydrobenzo[b][1,4]dioxin-6-yl)oxy)-1H-1,2,3-triazole-5-carboxylic acid 2,2,2-trifluoroacetate]
< 100	O=C(O)c1[nH]nnc1Oc1ccc(-c2cccc(OCC3CC3)c2)cc1 [Compound 232, 4-((3′-(cyclopropylmethoxy)-[1,1′-biphenyl]-4-yl)oxy)-1H-1,2,3-triazole-5-carboxylic acid]
< 100	CC(=O)N1CCN(c2cccc(-c3ccc(Oc4nn[nH]c4C(=O)O)cc3)c2)CC1 [Compound 233, 4-((3′-(4-acetylpiperazin-1-yl)-[1,1′-biphenyl]-4-yl)oxy)-1H-1,2,3-triazole-5-carboxylic acid 2,2,2-trifluoroacetate]
< 100	COCCOc1ccc(-c2ccc(Oc3nn[nH]c3C(=O)O)cc2)cc1 [Compound 234, 4-((4′-(2-methoxyethoxy)-[1,1′-biphenyl]-4-yl)oxy)-1H-1,2,3-triazole-5-carboxylic acid]
< 100	O=C(O)c1[nH]nnc1Oc1ccc2cc(OC(F)F)ccc2c1 [Compound 236, 4-((6-(difluoromethoxy)naphthalen-2-yl)oxy)-1H-1,2,3-triazole-5-carboxylic acid]
< 100	O=C(O)c1[nH]nnc1OC1CCc2cc(F)c(F)cc2C1 (centres unmarked) [Compound 237, 4-((6,7-difluoro-1,2,3,4-tetrahydronaphthalen-2-yl)oxy)-1H-1,2,3-triazole-5-carboxylic acid]
< 100	O=C(O)c1[nH]nnc1Oc1ccc(-c2cccc(C3CCOCC3)c2)cc1 [Compound 238, 4-((3′-(tetrahydro-2H-pyran-4-yl)-[1,1′-biphenyl]-4-yl)oxy)-1H-1,2,3-triazole-5-carboxylic acid 2,2,2-trifluoroacetate]
100 to 1000	CC(C)C(=O)OCOC(=O)c1[nH]nnc1Oc1ccc2cc(Cl)ccc2c1 [Compound 239, (isobutyryloxy)methyl 4-((6-chloronaphthalen-2-yl)oxy)-1H-1,2,3-triazole-5-carboxylate]
< 100	O=C(O)c1[nH]nnc1OC1Cc2cc(Cl)c(Cl)cc2C1 [Compound 241, 4-((5,6-dichloro-2,3-dihydro-1H-inden-2-yl)oxy)-1H-1,2,3-triazole-5-carboxylic acid 2,2,2-trifluoroacetate]
< 100	O=C(O)c1[nH]nnc1Oc1ccc(-c2ccc(C3CCOCC3)cc2)cc1 [Compound 242, 4-((4′-(tetrahydro-2H-pyran-4-yl)-[1,1′-biphenyl]-4-yl)oxy)-1H-1,2,3-triazole-5-carboxylic acid]

Structure (SMILES)	IC50 [nM]
CC(=O)OCOC(=O)c1[nH]nnc1Oc1ccc2cc(Cl)ccc2c1 [Compound 235, acetoxymethyl 4-((6-chloronaphthalen-2-yl)oxy)-1H-1,2,3-triazole-5-carboxylate]	< 100
CC(C)(C)OC(=O)N1CCCCC1C(=O)OCn1nnc(Oc2ccc(Cl)c(Cl)c2)c1C(=O)O (centres unmarked) [Compound 240, 1-(((1-(tert-butoxycarbonyl)piperidine-2-carbonyl)oxy)methyl)-4-(3,4-dichlorophenoxy)-1H-1,2,3-triazole-5-carboxylic acid]	1000 to 10000
